System: transcriptional activity of NRF2 (ARE activity)
Assay: miRNA library screening using ARE-luciferase reporter system
Type: cell-based, human
Settings: HeLa cells, 20 nmol/L miRNA, 48 hours after transfection, luciferase activity per living cell
Experimental: The luciferase reporter plasmid was prepared by inserting a human NQO-1 promoter region 5′-[…]-3′ (SEQ ID NO: 19) including an antioxidant response element (ARE) into an Mlu1/Xho1 site in pGL3 vector (Promega). Specifically, a pair of synthetic oligonucleotides complementary with each other shown in Table 2 (upper; SEQ ID NO: 20, lower; SEQ ID NO: 21) were annealed, to thereby form a double-stranded DNA, and a double-stranded DNA having cohesive ends complementary to the Mlu1/Xho1 site was prepared by use of Mlu1 and Xho1. The thus-produced double-stranded DNA fragment was inserted into the Mlu1/Xho1 site, to thereby yield a recombinant pGL3 (reporter plasmid) of interest.
Firstly, the reporter plasmid was transiently transfected into HeLa cells (1×10^7 cells/dish) in a 10 cm dish. 24 hours after transfection, the cells (1×10^4 cells/well) were seeded on a 96-well plate, and the next day, 20 nmol/L of each of the 470 double-stranded RNA fragments, derived from Pre-miRNA precursor library-Human V3 (Ambion) or control miRNA was transfected. After two days, firefly luciferase activity was measured by means of a microplate reader (ARVOmx; Perkinelmer) using Bright-Glo Luciferase Assay System (Promega). At the same time, living cells were detected through CV staining assay. ARE activity was calculated from the luciferase activity per living cell.
For the screening of 470 double-stranded RNAs, HeLa cells were sequentially transfected with each miRNA together with the reporter plasmid, and then the ARE activity in each transfected cell was calculated as the luciferase activity per living cell, as measured by the crystal violet (CV) staining assay. Briefly, the ARE-luciferase reporter plasmid and each miRNA from the library were sequentially transfected into HeLa cells, and after 48 hours, luciferase activity or the number of living cells was measured using the Bright-GIo Luciferase Assay System or crystal violet (CV) staining assay, respectively. The ARE activity for each miRNA-transfected cell was calculated as the luciferase activity per living cell.
The ARE activity relative to that in control-miRNA-transfected cells is indicated on the vertical axis. Eight miRNAs with a relative ratio of 0.5 or less were identified as candidates by this screening system. Also, eight miRNAs with a relative ratio of 1.5 or more were similarly identified as candidates by this screening system.

| Substance | ARE activity relative to that in control-miRNA-transfected cells (relative ratio) |
| --- | --- |
| hsa-miR-153: low-value miRNA from Pre-miRNA precursor library; mature sequence UUGCAUAGUCACAAAAGUGAUC, SEQ ID NO: 7 (listed as RNA, chemistry not given here; listed as Homo sapiens) | large decrease |
| hsa-miR-337: low-value miRNA from Pre-miRNA precursor library; mature sequence GAACGGCUUCAUACAGGAGUU, SEQ ID NO: 6 (listed as RNA, chemistry not given here; listed as Homo sapiens) | large decrease |
| hsa-miR-556: low-value miRNA from Pre-miRNA precursor library; mature sequence GAUGAGCUCAUUGUAAUAUGAG, SEQ ID NO: 8 (listed as RNA, chemistry not given here; listed as Homo sapiens) | large decrease |
| hsa-miR-639: low-value miRNA from Pre-miRNA precursor library; mature sequence AUCGCUGCGGUUGCGAGCGCUGU, SEQ ID NO: 5 (listed as RNA, chemistry not given here; listed as Homo sapiens) | large decrease |

Source: patent US10876115B2, “Method for assaying MicroRNA, cancer therapeutic agent, and medical composition containing same for cancer therapy” (National University Corporation Tokyo Medical and Dental …, priority 2013, dated 2020)
